The test system of data set [1] is photosynthetic electron transport (PET) in isolated spinach chloroplasts. In words: Inhibition of photosynthetic electron transport (PET) in isolated spinach chloroplasts. The format is biochemical, Spinacia oleracea L. The following applies: DCPIP photoreduction. The procedure: The PET-inhibiting activity was expressed by IC50 value, i.e., compound concentration in mol/L causing 50% inhibition of PET.
(§1) Chloroplasts were prepared from spinach (Spinacia oleracea L.) according to Masarovicova and Kralova. The inhibition of photosynthetic electron transport (PET) in isolated spinach chloroplasts was determined spectrophotometrically (Genesys 6, Thermo Scientific, USA), using an artificial electron acceptor 2,6-dichlorophenol-indophenol (DCIPP) according to Kralova et al., and the rate of photosynthetic electron transport was monitored as a photoreduction of DCPIP. The measurements were carried out in phosphate buffer (0.02 mol/L, pH 7.2) containing sucrose (0.4 mol/L), MgCl2 (0.005 mol/L) and NaCl (0.015 mol/L). The chlorophyll content was 30 mg/L in these experiments and the samples were irradiated (~100 W/m^2 with 10 cm distance) with a halogen lamp (250 W) using a 4 cm water filter to prevent warming of the samples (suspension temperature 22 °C). The studied compounds were dissolved in DMSO due to their limited water solubility. […] The inhibitory efficiency of the studied compounds was expressed by IC50 values, i.e., by molar concentration of the compounds causing 50% decrease in the oxygen evolution rate relative to the untreated control.

The nature of another data set: physchem. The following applies: aqueous buffer, kinetic from dmso stock.
A short description of data set [2]: Solubility in PET tested medium. The following applies: PET assay medium, phosphate buffer pH 7.2, DMSO up to 4%. In kind it is physicochemical. The procedure: as §1
Data set [3] is described as follows: Lipophilicity determination by RP-HPLC (capacity factor, log k). In kind it is physicochemical. The following applies: end-capped C18, isocratic MeOH 60%/H2O 40%. As to the method: Lipophilicity is a property that has a major effect on bioavailability, biotransformation as well as pharmacological activity, because drugs cross biological membranes through passive transport, which strongly depends on their lipophilicity. Lipophilicity of the studied compounds was determined by RP‑HPLC as capacity factor logarithm (log k). The procedure was performed under isocratic conditions with methanol as an organic modifier in the mobile phase using an end-capped non-polar C18 stationary RP column. The results of ring-substituted naphthalene-1-carboxanilides 1–8c are shown in Table 1 and illustrated in Figure 1. […] Lipophilicity was also calculated as log P using ACD/Percepta ver. 2012 (Advanced Chemistry Development, Inc., Toronto, ON, Canada).
A HPLC system Agilent 1200 equipped with DAD detector (Agilent, USA) was used. A chromatographic column Symmetry® C18 5 μm, 4.6 × 250 mm, Part No. WAT054275 (Waters Corp., Milford, MA, USA) was used. The HPLC separation process was monitored and evaluated by EZChrom Elite software ver. 3.3.2 (Agilent, USA). Isocratic elution by a mixture of MeOH p.a. (60%) and H2O-HPLC Mili-Q grade (40%) as a mobile phase was used. The total flow of the column was 1.0 mL/min, injection 20 μL, column temperature 40 °C, and sample temperature 10 °C. The detection wavelength 210 nm was chosen. The KI methanolic solution was used for the dead time (tD) determination. Retention times (tR) were measured in minutes. The capacity factors k were calculated according to formula k = (tR − tD)/tD, where tR is the retention time of the solute, whereas tD denotes the dead time obtained using an unretained analyte. Log k, calculated from the capacity factor k, is used as the lipophilicity index converted to log P scale.

Data set [4] concerns human monocytic leukemia THP-1 cell line. Put plainly: In vitro cytotoxicity assay (LDH). As to the method: Human monocytic leukemia THP-1 cells were obtained from the European Collection of Cell Cultures (ECACC, Salisbury, UK; Methods of characterization: DNA Fingerprinting (Multilocus probes) and isoenzyme analysis). These cells were routinely cultured in RPMI 1640 (Lonza, Verviers, Belgium) medium supplemented with 10% fetal bovine serum (FBS, Sigma-Aldrich, St. Louis, MO, USA), 2% L-glutamine, 1% penicillin and streptomycin (Lonza) at 37 °C with 5% CO2. Cells were passaged at approximately one-week intervals. Cells were routinely tested for the absence of mycoplasma (Hoechst 33258 staining method). The tested compounds were dissolved in DMSO (Sigma-Aldrich) and added in five increasing concentrations to the cell suspension in the culture medium. The maximum concentration of DMSO in the assays never exceeded 0.1%. Subsequently, the cells were incubated for 24 h at 37 °C with 5% CO2 to various compound concentrations ranging from […] in RPMI 1640 medium. Cell toxicity was determined using a Cytotoxicity Detection Kit^PLUS Lactate dehydrogenase (LDH) assay kit (Roche Diagnostics, Mannheim, Germany) according to the manufacturer’s instructions, as described previously. For LDH assays, cells were seeded into 96-well plates (5 × 10^4 cells/well in 100 μL culture medium) in triplicate in serum-free RPMI 1640 medium, and measurements at 492 nm wavelength (Synergy 2 Multi-Mode Microplate Reader, BioTek, Winooski, VT, USA) were taken 24 h after the treatment with tested compounds. The median lethal dose values, LD50, were deduced through the production of a dose-response curve. All data were evaluated using GraphPad Prism 5.00 software (GraphPad Software, San Diego, CA, USA).
LDH Test Principle: The LDH activity is determined by a coupled enzymatic reaction, whereby the tetrazolium salt INT is reduced to formazan. An increase in the amount of dead or plasma membrane damaged cells results in an increase of LDH enzyme activity in the culture supernatant. This increase in the amount of enzyme activity in the supernatant directly correlates to the amount of formazan formed during a limited time period.

Consider one compound from PMC6270837, “Preparation and Biological Properties of Ring-Substituted Naphthalene-1-Carboxanilides” (Molecules, 2014).

“Also recorded” adds a separate entry of the source. Where only a bound is given, the exact number is not on record here.

For the compound `Cc1ccc(NC(=O)c2cccc3ccccc23)cc1` [Compound 3c, N-(4-Methylphenyl)naphthalene-1-carboxamide], the concentration for half-maximal inhibition (IC50) in data set [1] is 381 µM. This compound returned a solubility in “physchem” of at most 30 µM. In addition, the “solubility in tested medium (PET experiments)” value in data set [2] is recorded as “limited solubility”. In data set [3], this compound returned a log k of 0.7551. For the same compound, the LD50 in data set [4] (human, 24 h) was above 30 µmol/L. Moreover, the “lethal effect / toxicity on THP-1 cells” value in data set [4] (treatment with 30 μmol/L) was “did not lead to significant lethal effect; also recorded: insignificant toxicity”.

The term IC50 denotes the point on the concentration scale where inhibition reaches its midpoint. Usually solubility stands for how much of the substance goes into solution per volume.
